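Interpolation was linear, between the two tested concentrations surrounding the appropriate level; five concentrations were tested over 48 hours in 96-well plates. TGI denotes the concentration required for complete inhibition of growth.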
How the values were obtained:
Assay in all cases: growth of human tumour cells (NCI), 48 h
[1] = test system: HL-60(TB) leukemia
[2] = test system: HOP-62 NSCLC
[3] = test system: HS 578T breast
[4] = test system: KM12 colon
[5] = test system: MALME-3M melanoma
[6] = test system: MDA-N
[7] = test system: MOLT-4 leukemia
[8] = test system: NCI-H460 lung
[9] = test system: NCI-H522 lung
[10] = test system: OVCAR-5 ovarian
[11] = test system: SF-268 CNS
[12] = test system: SF-295 CNS
[13] = test system: SK-MEL-28 melanoma
[14] = test system: SK-MEL-5 melanoma
[15] = test system: SW-620 colon
[16] = test system: T-47D breast
[17] = test system: UACC-257 melanoma
[18] = test system: UO-31 renal
[19] = test system: RXF 393 renal

SMILES | TGI [1] [µM] | TGI [2] [µM] | TGI [3] [µM] | TGI [4] [µM] | TGI [5] [µM] | TGI [6] [µM] | TGI [7] [µM] | TGI [8] [µM] | TGI [9] [µM] | TGI [10] [µM] | TGI [11] [µM] | TGI [12] [µM] | TGI [13] [µM] | TGI [14] [µM] | TGI [15] [µM] | TGI [16] [µM] | TGI [17] [µM] | TGI [18] [µM] | TGI [19] [µM]
CCCC(=O)OC1CC(n2cc(F)c(=O)[nH]c2=O)OC1COP(=O)(OCC(Cl)(Cl)Cl)OCC(Cl)(Cl)Cl (stereo not drawn) | 40.4 | > 100 | 76.3 | > 100 | > 100 | > 31.6 | > 62.1 | 28.8 | 16.6 | > 100 | > 31.6 | 16.8 | > 62.4 | > 100 | > 100 | > 31.6 | > 92 | > 100 | 
CC1=C[C@@H]2Cc3nc4cc(Cl)ccc4c(N)c3[C@H](C1)C2 | 35.3 | 24 | 9.75 | 21.6 | 24.6 | 31.5 | 11.6 | 23.1 |  | 17.3 | 25.8 | 20 | 25.1 | 11.2 | 25.3 | 37.4 | 4.9 | 17.7 | 18.3
NS(=O)(=O)c1cc2c(cc1Cl)NC(CCC(=O)O)=NS2(=O)=O |  | > 100 | > 100 | > 100 | > 100 | > 100 |  | > 100 | > 100 | > 100 | > 100 | > 100 | > 100 | > 100 | > 100 | > 100 | > 100 | > 100 | > 100
COC(=O)C1CCC(=O)N1C(c1ccc(OC)cc1)c1ccc2c(c1)OCO2 (stereo not drawn) | 91.2 | > 100 | > 100 | > 100 | > 100 | 27.3 | > 100 | > 100 | > 100 | > 100 | > 100 | 48 | > 100 | 81.7 | > 100 | > 100 | > 100 | > 100 | 
CSC(=S)N/N=C(\C)c1ccc(S(=O)(=O)N(C)c2ccccc2)cc1 | > 100 | > 100 | 87 | > 100 | 22.5 | > 100 | > 100 | > 100 |  | > 100 | > 100 | > 100 | > 100 |  | > 100 | > 100 | > 100 | > 100 | > 100
O=C(O)CCC(=O)OC1N=C(c2ccccc2Cl)c2cc([N+](=O)[O-])ccc2NC1=O (stereo not drawn) | > 100 | > 100 | > 100 | > 100 | > 100 | > 100 |  | > 100 | > 100 | > 100 | > 100 | > 100 | > 100 |  | > 100 | > 100 | > 100 | > 100 | > 100
CCOC(=O)c1ccc(NCC#CCN2CCOCC2)cc1 | > 100 | > 100 | > 100 | > 100 | > 100 | > 100 | > 100 |  |  | > 100 | > 100 |  | > 100 | > 100 | > 100 | > 100 |  | > 100 | > 100
CCOC(=O)c1cn2c(nc1=O)N[C@H]1CCCC[C@@H]12 | > 100 |  | > 100 | > 100 | > 100 | > 100 | > 100 | > 100 | > 100 | > 100 | > 100 | > 100 | > 100 | > 100 | > 100 | > 100 | > 100 | > 100 | 
CCN(CCCN(CC)C(=O)Nc1c(C)cccc1C)C(=O)Nc1c(C)cccc1C |  | > 100 | > 100 | > 100 | > 100 | > 100 | > 100 | > 100 | > 100 | > 100 | > 100 | > 100 | > 100 | > 100 | > 100 | > 100 | > 100 | > 100 | > 100
Cc1nc(N)c(N2CCN([N+](=O)[O-])CC2)c(=O)[nH]1 | > 100 | > 100 | > 100 | > 100 | > 100 | > 100 | > 100 | > 100 | > 100 | > 100 | > 100 | > 100 | > 100 |  | > 100 | > 100 | > 100 | > 100 | 
O=C1c2ccccc2-c2c1c(-c1ccc(F)cc1)nc1ccc3ccccc3c21 |  | > 100 | > 100 | > 100 | > 100 | > 100 | > 100 | > 100 |  | > 100 | > 100 | > 100 | > 100 |  | > 100 | > 100 | > 100 | > 100 | > 100

Reference: PubChem BioAssay (NCI)
